Test results as given in patent publication US8278296B2, “Manipulation of brain CDP-diacylglycerol and uses thereof” (priority 2006, dated 2012).
“Also recorded” adds a separate entry of the source.

Experiments:
5HT2 receptor [1] = tested on: 5HT2 receptor
Experimental: Hippocampal slices were incubated with either [^3H]inositol (FIGS. 13A-13B) or [^3H]cytidine (FIG. 13C) for 30 min, followed by addition of indicated concentrations of LY53857 (6-methyl-1-(1-methylethyl)-ergoline-8β-carboxylic acid 2-hydroxy-1-methylpropyl ester maleate). […] After 60 min, tritiated inositol phosphate, inositol phospholipids, or CDP-diacylglycerol were assayed. Each bar is the mean±SEM (n=6). Data for each analyte were normalized across experiments and test drugs and then were analyzed for each drug by One-Way ANOVA of responses measured at the four concentration conditions of LY53857 (0, 0.1, 1, 10 μM). The ANOVAs were followed with Dunnett tests comparing the response in the presence of each concentration of LY53857 to the control effect of the antidepressant alone.
To examine the extent to which the enhancing effects of antidepressant agents on inositol phosphate accumulation were dependent on postsynaptic 5HT2 receptor stimulation, each antidepressant was challenged with a range of concentrations of the 5HT2 receptor-selective antagonist, LY53857 (71-72). The antagonist was added after the prelabeling phase, but 15 min prior to the addition of α-methylserotonin to the incubating slices.

CDP-diacylglycerol = assay: [3H]CDP-diacylglycerol accumulation in rat brain slices; format: cell-based; conditions: for effect on CDP-DG production: monoamine receptor agonists, frontal cortex or hippocampal tissues, 5 mM LiCl; for effect on CDP-DG production / effect on [3H]CDP-diacylglycerol accumulation: 90 min; for effect on [3H]CDP-diacylglycerol accumulation: rat hippocampal, prefrontal cortical and striatal slices, LiCl present
phosphatidylinositides = assay: [3H]inositol phospholipid (phosphatidylinositide) resynthesis in rat brain slices; format: cell-based; conditions: for effect on PI synthesis: frontal cortex or hippocampal tissues, 5 mM LiCl; for effect on PI synthesis / effect on [3H]inositol labeling of PIs (phosphatidylinositide synthesis): 90 min; for effect on [3H]inositol labeling of PIs (phosphatidylinositide synthesis): hippocampus, frontal cortex, striatum slices
inositol phosphates = assay: [3H]inositol phosphate accumulation in rat brain slices; format: cell-based; conditions: for effect on IP accumulation: monoamine receptor agonists, frontal cortex or hippocampal tissues, 5 mM LiCl, 90 min; for effect on accumulation of IPs: 3-300 μM, hippocampus, frontal cortex, striatum slices
[2] = tested on: CDP-diacylglycerol/inositol phosphate; assay: CDP-DG/IP ratio calculated from brain slice data; format: cell-based, rat
Experimental: FIGS. 9A-9C are ratios of antidepressant-induced CDP-diacylglycerol versus inositol phosphates. The data in FIGS. 1A-1C, 2A-2B, 3A-3C, 4A-4B, and 5A-5C were recalculated by dividing the CDP-diacylglycerol effects of each concentration of each antidepressant agent by the corresponding effects of the agent on inositol phosphate accumulation to yield the CDP-diacylglycerol/inositol phosphate (CDP-DG/IP) ratios shown. […] Data for each agent were analyzed by One-Way ANOVA followed by posthoc Dunnett tests. ^#p<0.05; *p<0.01; compared to the respective control (zero drug concentration).
As used herein, the term “CDP-DG/IP ratio” refers to the relative value of an index which is the quotient of a level of cellular CDP-diacylglycerol divided by a level of inositol phosphate in a tissue or cell or tissue cultures thereof, e.g., a mammalian brain tissue or blood platelets, a human brain tissue or blood platelets, or other cells or tissues having the ability to metabolize CDP-diacylglycerol and phosphoinositides. Levels may be determined, but are not limited to, using molar concentration or a radiolabel.
To determine if antidepressant agents exert differential effects on CDP-DG production compared to PI hydrolysis, the ratios of CDP-DG production relative to the IPs (CDP-DG/IP ratio) in corresponding treatment conditions were examined.
Corresponding CDP-DG ratios were calculated as for the antidepressant agents. […] The ratios of CDP-DG production relative to IP accumulation are shown on the far right of the graphs in FIGS. 10A-10C and FIGS. 11A-11D.

5HT2 receptor [3] = assay: α-methylserotonin-stimulated IP accumulation in tissues prelabeled with [3H]inositol in presence of antidepressants; format: cell-based, rat
rats = assay: Forced swim test; format: in vivo, rat; conditions: for effect on immobility times in forced swim test: modified regimen, i.p. at 3 h and 1 h before testing
Experimental: One group of rats was acclimated once in the swim chamber and subgroups of three animals each were administered indicated doses (corresponding to 0, 3, 10, and 30 mg/kg) of imipramine at 24, 3, and 1 h before behavioral testing (conventional regimen). The other group of rats from the same batch was acclimated twice at 48 and 24 h before the time of testing and subgroups were administered the same doses of imipramine at 3 and 1 h before behavioral testing. Animals in each group were then tested in the forced swim apparatus for 5 min and the immobility times determined. […] Each bar is the mean±SEM (n=6). […] Animals were prepared as in FIG. 14 for the modified regimen. […] Test drugs were administered at indicated doses 3 and 1 h before behavioral testing. […] Immobility response data for set one were analyzed by one-way ANOVA (response by dose) in order to determine if the drug by itself produced significant effects. Data for set two were analyzed by one-way ANOVA (response by group, where group comprised control, neomycin, drug, neomycin+drug), followed by posthoc Tukey tests. […] The forced swim test (FST) was applied with some modifications. Rats were transferred to the testing room between 9:00-10:00 AM and allowed at least an hour before being placed individually into translucent polypropylene cylinders (46 cm tall×25 cm in diameter) containing 27 cm depth of water maintained at 25° C. […] After 15 min in the water, the rats were removed, toweled, and allowed to dry in a warm environment before being returned to their home cage. This acclimation step was repeated after 24 h, with the exposure time reduced from 15 to 5 min. […] During the second acclimation exposure, the duration of immobility was recorded for each animal. […] To adjudge that a rat had become immobile, the animal had to float passively in the water in a slightly hunched, but upright position, making only minimal movements necessary to keep its head above the water (65-66). On the third day when animals were to undergo experimental assessment, saline or the indicated antidepressant agents were administered i.p. at 3 h and at 1 h before behavioral testing. The drugs were dissolved in distilled-deionized water and diluted in saline. Control subjects received 0.9% saline. […] Data were analyzed by one-way analysis of variance (ANOVA).

[4] = tested on: phosphoinositide-specific phospholipase C / PI metabolism; assay: Blockade of PI hydrolysis (neomycin, U73122) on antidepressant-induced CDP-DG, PI and IP responses in brain slices; format: cell-based, rat; conditions: compared with tricyclic agents
[5] = hippocampal slices, 0.1, 1, 10 μM
[6] = monoamine receptor agonists, frontal cortex or hippocampal tissues

SMILES: CC(O)C(C)OC(=O)[C@@H]1C[C@@H]2c3cccc4c3c(cn4C(C)C)C[C@H]2N(C)C1.O=C(O)/C=C\C(=O)O (stereo partly drawn) [LY53857, 6-methyl-1-(1-methylethyl)-ergoline-8β-carboxylic acid 2-hydroxy-1-methylpropyl ester maleate]
- increase of basal CDP-diacylglycerol (5HT2 receptor [1]; 0.1 μM, hippocampal slices): 20%
- inhibition of IP responses to antidepressant agents (5HT2 receptor [1]; hippocampal slices, 300 μM imipramine, desipramine, paroxetine, maprotiline or 100 μM fluoxetine): completely blocked
- effect on basal levels of IPs (5HT2 receptor [1]; [5]): did not significantly alter
- effect on basal levels of PIs (5HT2 receptor [1]; [5]): did not significantly alter
- inhibition of antidepressant-induced CDP-diacylglycerol responses (5HT2 receptor [1]; hippocampal slices, all drugs): statistically significantly inhibited
- inhibition of antidepressant-induced PI labeling (5HT2 receptor [1]; hippocampal slices, all drugs): statistically significantly inhibited

SMILES: CC(N)Cc1c[nH]c2ccc(O)cc12 (stereo not drawn) [α-methylserotonin]
- effect on CDP-DG production (CDP-diacylglycerol): significantly increased
- effect on PI synthesis (phosphatidylinositides; […]): significant but relatively small effects
- effect on IP accumulation (inositol phosphates): significantly increased
- CDP-DG/IP ratio [2, 6]: no concentration-related increase
- IP accumulation induced by agonist by itself (5HT2 receptor [3]; hippocampus, frontal cortex, striatum, 60 min, 5 mM LiCl): significant increases

SMILES: C[N+](C)(C)CCOC(N)=O [carbachol]
- effect on CDP-DG production (CDP-diacylglycerol): significantly increased
- effect on PI synthesis (phosphatidylinositides; monoamine receptor agonists): failed to increase
- effect on IP accumulation (inositol phosphates): significantly increased
- CDP-DG/IP ratio [2, 6]: dramatic decrease

SMILES: Oc1cc2c(cc1O)C(c1ccccc1)CNCC2 (racemic) [SKF38393, (+/−)-1-phenyl-2,3,4,5-tetrahydro-(1H)-3-benzazepine-7,8-diol]
- effect on CDP-DG production (CDP-diacylglycerol): significantly increased
- effect on PI synthesis (phosphatidylinositides; monoamine receptor agonists): significantly enhanced
- effect on IP accumulation (inositol phosphates): significantly increased
- CDP-DG/IP ratio [2, 6]: increased CDP-DG/IP ratios significantly
- ratio of CDP-DG relative to PIs (CDP-DG/PI ratio) ([2]; prefrontal cortical slices): significantly enhanced
- ratio of CDP-DG relative to both inositol derivatives (CDP-DG/IP&PI) ([2]; prefrontal cortical slices): significantly enhanced
- effect on immobility times in forced swim test (rats): significantly decreased immobility times

SMILES: NNCCc1ccccc1 [phenelzine]
- concentration at which CDP-DG effects achieved significance (CDP-diacylglycerol; frontal cortex slices, Dunnett's): 1 µM
- effect on CDP-DG accumulation (CDP-diacylglycerol; frontal cortex slices, MAOIs): robust effects
- effect on [3H]inositol phospholipid synthesis (PI resynthesis) (phosphatidylinositides; rat cortical slices, MAOIs): significant and concentration-dependent increases
- CDP-DG/IP ratio ([2]; antidepressant agents, increasing drug concentrations, hippocampus, similar in cortical tissues): increased significantly

SMILES: CNCCC(Oc1ccc(C(F)(F)F)cc1)c1ccccc1 (stereo not drawn) [fluoxetine]
- effect on [3H]CDP-diacylglycerol accumulation (CDP-diacylglycerol): significantly and dose-dependently enhanced
- effect on [3H]inositol labeling of PIs (phosphatidylinositide synthesis) (phosphatidylinositides): significantly increased
- effect on accumulation of IPs (inositol phosphates): significantly and dose-dependently stimulated
- effect on immobility times in forced swim test (rats): significant and dose-dependent reductions
- sensitivity of drug effects to inhibition by U73122 [4]: more sensitive

SMILES: CNCCCC12CCC(c3ccccc31)c1ccccc12 [maprotiline]
- effect on [3H]CDP-diacylglycerol accumulation (CDP-diacylglycerol): significantly and dose-dependently enhanced
- effect on [3H]inositol labeling of PIs (phosphatidylinositide synthesis) (phosphatidylinositides): significantly increased
- effect on accumulation of IPs (inositol phosphates): significantly and dose-dependently stimulated
- effect on immobility times in forced swim test (rats): significant and dose-dependent reductions

SMILES: CN(C)CCCN1c2ccccc2CCc2ccccc21 [imipramine]
- effect on [3H]CDP-diacylglycerol accumulation (CDP-diacylglycerol): significantly and dose-dependently enhanced
- lowest concentration with statistically significant CDP-diacylglycerol response (CDP-diacylglycerol; striatum slices, posthoc Dunnett test): 30 µM
- effect on [3H]inositol labeling of PIs (phosphatidylinositide synthesis) (phosphatidylinositides): significantly increased
- effect on accumulation of IPs (inositol phosphates): significantly and dose-dependently stimulated
- enhancement of α-methylserotonin effects on IP by prelabeling with antidepressant (5HT2 receptor [3]; frontal cortex tissues): concentration-dependently enhanced
- enhancement of α-Me5HT-induced IP accumulation by prelabeling in presence of antidepressant (5HT2 receptor [3]; hippocampus, frontal cortex, striatum): significantly enhanced
- enhancement of α-methylserotonin effects on IP by prelabeling with antidepressant (5HT2 receptor [3]; striatal tissues): not significantly enhanced
- effect on immobility behavior in forced swim test (rats; conventional and modified regimens, 0, 3, 10, 30 mg/kg): significant dose-related effects; also recorded: significant and dose-related
- effect on immobility times in forced swim test (rats): significant and dose-dependent reductions
- inhibition by 5HT2 receptor blockade (LY53857) of the drug's PI labeling / phosphatidylinositol resynthesis effect (5HT2 receptor [1]; hippocampus, similar in frontal cortex): only partially, though significantly, reduced
